Holding throughout (type): cell-based, mouse
Experiment [1] relates to cells expressing the myosin-heavy chain I protein. Nature of the experiment: Screening method of substances involved in a metabolic shift: myotube cells from immortalized muscle stem cells, YFP fluorescence. Particulars: for area of cells expressing the myosin-heavy chain I protein: two days treatment; for number of myotube cells that generate fluorescence of YFP (myosin-heavy chain I): compared to the negative control. How it is done: (§1) In this Example, 27 test compounds were tested by the screening method of substances involved in a metabolic shift using the immortalized muscle stem cells (satellite cells) prepared in Example 2.
(§2) The immortalized muscle stem cells (1×10^5) were seeded on a 60 mm dish or the immortalized muscle stem cells (2×10^3) were seeded on a 96 well plate. The cells were cultured in a DMEM containing 20% FBS, bFGF (10 ng/mL), and IFNy (10 ng/mL) at 33° C. for 1 day, and then, cultured in a DMEM containing 5% HS at 37° C. for 3 days. Subsequently, test substances were serially diluted by a DMEM containing 5% horse serum at an appropriate dilution rate, and the diluted substances were added to the dishes respectively. After two days treatment, fluorescences of YFP, Sirius, mCherry, and mCerulean in the living cells were observed using a fluorescence microscope, and the number of cells, which generate the respective fluorescence, was measured.
(§3) In this example, additional test compounds were tested using the immortalized muscle stem cells (satellite cells) prepared in Example 2. The screening method of substances involved in a metabolic shift was performed by repeating a procedure of Example 3.

The subject of experiment [2] is cells expressing the myosin-heavy chain IIb protein. Nature of the experiment: Screening method of substances involved in a metabolic shift: myotube cells from immortalized muscle stem cells, mCherry fluorescence. Conditions: for number of myotube cells that generate fluorescence of mCherry (cells expressing myosin-heavy chain IIb): compared to the negative control; for area of cells expressing the myosin-heavy chain IIb protein: two days treatment. The procedure:
as §1, §2, §3

Experiment [3] deals with immortalized muscle stem cells (satellite cells). Nature of the experiment: Proliferation inhibition screening method using satellite cells. Conditions: 5 nM, five days of culturing, versus control without rapamycin. How it is done:
The rapamycin was obtained by the metabolic shift screening method in Example 3. In this Example, whether or not the rapamycin can be screened by the proliferation inhibition screening method using satellite cells was examined.
The immortalized muscle stem cells (1×10^4) were seeded on a 35 mm dish. The cells were cultured in a DMEM containing 20% FBS, bFGF (lOng/mL), and IFNγ (10 ng/mL) at 33° C. for 1 day, and then the rapamycin was diluted to a concentration of 5 nM by a DMEM containing 5% FBS, and the diluted rapamycin was added to the dish. The number of cells was counted after five days of culturing. […] The term “Control” means negative control in which the rapamycin was not added. The proliferation of satellite cells was inhibited by adding rapamycin.

The text below walks through data of patent US9618502B2, “Muscle stem cell or myoblast, method for screening substances that participate in metabolic conversion using same, and pharmaceutical composition comprising substance obtained from said screening method” (TOKYO METROPOLITAN GERIATRIC HOSPITAL AND INSTITUTE OF …, priority 2013, dated 2017).

`C[C@H](Cc1ccc2c(c1)OC(C(=O)[O-])(C(=O)[O-])O2)NC[C@H](O)c1cccc(Cl)c1.[Na+].[Na+]` [CL316243]: the “area of cells expressing the myosin-heavy chain I protein” value was found to be 49.3% in experiment [1] (1 nM, negative control 28.4%); 53.8% in experiment [1] (10 nM, negative control 28.4%); 57.8% in experiment [1] (100 nM, negative control 28.4%). Also, the “number of myotube cells that generate fluorescence of YFP (myosin-heavy chain I)” value (“number … (myosin-heavy chain I)” below) in experiment [1] was “increased”. Besides, the “number of myotube cells that generate fluorescence of mCherry (cells expressing myosin-heavy chain IIb)” value in experiment [2] is reported as “remains static”.

Turning to `N[C@@H](Cc1cc(I)c(Oc2ccc(O)c(I)c2)c(I)c1)C(=O)O` [T3, triiodothyronine], the “area of cells expressing the myosin-heavy chain IIb protein” value was determined as 71.3% in experiment [2] (100 nM, negative control 44.5%) and 70.0% in experiment [2] (500 nM, negative control 44.5%). Moreover, the “number of myotube cells that generate fluorescence of mCherry (cells expressing myosin-heavy chain IIb)” value in experiment [2] is reported as “increased”.

As to `CO[C@H]1C[C@@H]2CC[C@@H](C)[C@@](O)(O2)C(=O)C(=O)N2CCCC[C@H]2C(=O)O[C@H]([C@H](C)C[C@@H]2CC[C@@H](O)[C@H](OC)C2)CC(=O)[C@H](C)/C=C(\C)[C@@H](O)[C@@H](OC)C(=O)[C@H](C)C[C@H](C)/C=C/C=C/C=C/1C` [rapamycin], the “area of cells expressing the myosin-heavy chain I protein” value in experiment [1] (4 nM, negative control 25.3%) is given as 60.9%. Besides, the “number … (myosin-heavy chain I)” value in experiment [1] was “increased”. Moreover, the “area of cells expressing the myosin-heavy chain IIb protein” value in experiment [2] (4 nM, negative control 41.8%) was found to be 8.4%. The “number of myotube cells that generate fluorescence of mCherry (cells expressing myosin-heavy chain IIb)” value in experiment [2] is “decreased”. Further, the “proliferation of satellite cells (number of cells)” value in experiment [3] is “inhibited”.

“IL-15: IL-15, one of the test substances”: the “area of cells expressing the myosin-heavy chain I protein” value in experiment [1] (100 ng/mL, negative control 19.5%) is on record as 35.0%; in experiment [1] (500 ng/mL, negative control 19.5%) it was 36.1%. Also, the “number … (myosin-heavy chain I)” value in experiment [1] is reported as “increased”. The “area of cells expressing the myosin-heavy chain IIb protein” value in experiment [2] (500 ng/mL, negative control 36.2%) amounted to 53.0%. Besides, in experiment [2], the “number of myotube cells that generate fluorescence of mCherry (cells expressing myosin-heavy chain IIb)” value is “increased”.

B1: mouse fibroblast growth factor 21: protein consisting of the amino acid sequence of SEQ ID NO: 1, mouse fibroblast growth factor 21 (protein, listed as Mus musculus)
chain: MEWMRSRVGTLGLWVRLLLAVFLLGVYQAYPIPDSSPLLQFGGQVRQRYLYTDDDQDTEAHLEIREDGTVVGAAHRSPESLLELKALKPGVIQILGVKASRFLCQQPDGALYGSPHFDPEACSFRELLLEDGYNVYQSEAHGLPLRLPQKDSPNQDATSWGPVRFLPMPGLLHEPQDQAGFLPPEPPDVGSSDPLSMVEPLQGRSPSYAS
Turning to B1, the “area of cells expressing the myosin-heavy chain I protein” value in experiment [1] (1 nM, negative control 28.4%) was determined as 40.6%; in experiment [1] (10 nM, negative control 28.4%) it was 48.0%; in experiment [1] (100 nM, negative control 28.4%), 54.9%. Further, in experiment [1], the “number … (myosin-heavy chain I)” value is “increased”. Further, the “number of myotube cells that generate fluorescence of mCherry (cells expressing myosin-heavy chain IIb)” value in experiment [2] was “remains static”.
